{
  "source": "patent US20260357349A1",
  "about": "“METHODS OF IDENTIFYING AND TREATING CANCER” (Agency for Science, Technology and Research, priority 2022, published 2026)",
  "key": {"RCC": {"test_system": "RCC", "conditions": "best responder to the combined therapy; cited from earlier work"}, "[1]": {"test_system": "NF-κB target genes (786-O cells)", "experiment": "RT-qPCR of NF-κB target genes after NF-κB inhibitor, 786-O", "assay_type": "cell-based, human", "conditions": "0.006 μM bortezomib or 0.6 µM Bay 11-7085, 24 hours", "protocol": "(§1) Colony formation of parental (WT) or PBRM1 knockout (KO) 786-O cells expressing shRNA against non-targeting control (NC), RELA, or NFKB1 cultured with a) 10% or b) 2% serum. c) Gene expression changes of NF-κB target genes in 786-O cells treated with 0.006 μM bortezomib (BTZ) or 0.6 µM Bay 11-7085 for 24 hours (n=3 technical replicates). * p-value<0.05 (two-sided t-test). […] A positive log fold change refers to gain in bortezomib treatment over DMSO. g) Colony formation of 786-O isogenic cells and h) NCC432 isogenic cells treated with bortezomib for a week. Tumor formation of isogenic 786-O cells (i) and NCC432 cells (j) treated with PBS control or 0.5 mg/kg bortezomib (BTZ) in NSG mice. (n=10 tumors per group for 786-O, and n=16 tumors for NCC432 PBS EV group and 12 tumors for NCC432 PBS PBRM1 group and 14 tumors for both NCC432 EV and PBRM1 BTZ groups). Data are presented as mean values+/−SEM. k) Model for the study."}, "IκBα / NF-κB": {"test_system": "IκBα / NF-κB", "conditions": "cited from earlier work"}, "786-O cells": {"test_system": "786-O cells", "experiment": "Colony formation, 786-O isogenic cells", "assay_type": "cell-based, human", "conditions": "786-O with and without PBRM1, vs DMSO", "protocol": "as §1\nData are presented as median+/−25%. […] Data are presented as mean values+/−SD. e) Tornado plots of RELA and SMARCA4 ChIP-seq signals in parental 786-0 or PBRM1-KO 786-O cells treated with DMSO or 0.005 μM bortezomib for 9 hours. f) Kaplan-Meier curves of NSG mice bearing 786-O isogenic cells treated with PBRM1 control or 0.5 mg/kg bortezomib (WT: n=10 PBS arm, median survival=39 days; n=10 bortezomib arm, median survival=52 days, HR=4.1, p=3E-6, log rank test; KO: n=10 PBS arm, median survival=35 days, n=10 bortezomib arm, median survival=66 days, HR=4.1, p=3E-6, log rank test). g) Kaplan-Meier curves of NSG mice bearing NCC432 isogenic cells treated with PBRM1 control or 0.5 mg/kg bortezomib (EV: n=16 PBS arm, median survival=42 days; n=14 bortezomib arm, median survival=49 days, HR=2.5, p=0.0009, log rank test; PBRM1: n=12 PBS arm, median survival=55 days; n=14 bortezomib arm, median survival=58 days, HR=1.2, p=0.5, log rank test). h) 786-O PBRM1 WT or KO cells were screened against the high-specific SGC epigenetic probe collection and cell viability was measured by colony formation after 1 week of treatment relative to DMSO control. […]"}, "[2]": {"test_system": "NF-κB target genes (786-O cells)", "experiment": "RT-qPCR of NF-κB target genes after SMARCA2/4 ATPase inhibitor, 786-O", "assay_type": "cell-based, human"}, "[3]": {"test_system": "RELA occupancy at NF-κB target genes", "experiment": "ChIP-qPCR of RELA occupancy after SMARCA2/4 ATPase inhibitor, 786-O", "assay_type": "cell-based, human", "conditions": "PB1-deficient setting, 24 hours", "protocol": "For each protein of interest, approximately 2×10^7 cells were cross-linked with 1% formaldehyde for 10 min at room temperature, and stopped by adding glycine to a final concentration of 0.2M. Chromatin was extracted and sonicated to ~500 bp (Vibra cell, SONICS). The following antibodies were used for chromatin immunoprecipitation: PBRM1 (Bethyl A301-591A Lot: 3-4), SMARCA4 (AbCAM ab110641 Lot: GR3208604-8), ARID2 (Bethyl A302-230A Lot: 2), BRD7 (Bethyl A302-304A Lot: 1), ARID1A (Santa Cruz sc-32761 Lot: #H2217), SMARCC1 (Santa Cruz sc-32763 Lot: #K1617), NFkB p65/RELA (Santa Cruz sc-372 Lot: #J1915; Diagenode C15310256, Lot: 24468; Invitrogen 51-0500, Lot: WG331314), BRD9 (Bethyl A303-781A, Lot2), RNA POL II (Merck Millipore 05-623 Lot: 2958013), H3K27ac (AbCAM ab4729-100 Lot: 741806), H3K14ac (AbCAM ab52946 Lot: GR3252548-5), H3K4me3 (Merck Millipore 07-473 Lot: 2930138), H3K4me1 (AbCAM ab8895 Lot: GR312093-1), H3K27me3 (Millipore 07-449 Lot: JBC1924326), H3K9me3 (Millipore 07-442 Lot: DAM1411287). The total volume of immunoprecipitation was 2 ml and the amount of antibody used was 20 μg. The input DNA was precleared with protein G Dynabeads (LifeTechnologies) for 2 hours at 4 °C and then incubated with antibodies overnight at 4 °C. […] Each library was sequenced to an average depth of 30-50 million reads on HiSeq2000, HiSeq4000 or Novaseq 6000."}, "[4]": {"test_system": "NF-κB target genes (NCC432 cells)", "experiment": "RT-qPCR of NF-κB target genes after SMARCA2/4 ATPase inhibitor, NCC432", "assay_type": "cell-based, human", "from_the_text": "Data are presented as mean values+/−SD. b) Colony formation of 786-O cells expressing shRNA against non-targeting control (NTC) or ARID2. c) Colony formation of 786-O cells expressing shRNA against non-targeting control (NTC) or SMARCA4. d) Immunoblotting and e) colony formation of NCC432 cells expressing shRNA against non-targeting control (NTC) or ARID2 (n=3 biological replicates). Data are presented as mean values+/−SD. * p<0.05, ** p<0.01 (two-sided t-test). f) Immunoblotting and g) colony formation of NCC432 cells expressing shRNA against non-targeting control (NTC) or SMARCA4 (n=4 biological replicates). Data are presented as mean values+/−SD. *** p<0.001, **** p<0.0001 (two-sided t-test). In vivo tumor formation in h) 786-O parental cells and i) 786-0 PBRM1 KO cells expressing shRNA against non-targeting control (NTC), ARID2 (clone 1) or SMARCA4 (clone 2) (n=10 tumors per group). Data are presented as mean values+/−SEM for tumor growth and mean values+/−SD for tumor weight. **** p<0.0001 (two-sided t-test).\nIt was previously shown that inhibiting the SMARCA4 ATPAse subunit abolished chromatin accessibility and binding of SMARCA4-dependent transcription factors. To understand whether the activation of pathway requires the ATPase activity of SMARCA4, 786-O and NCC432 cells were treated with SMARCA2/4 ATPase inhibitor. […]"}, "[5]": {"test_system": "NF-κB pathway (786-O cells)", "experiment": "RNA-seq gene set enrichment of direct NF-κB targets after SMARCA2/4 ATPase inhibitor, 786-O", "assay_type": "cell-based, human", "conditions": "10 μM, 24 hours", "protocol": "Data are presented as mean values+/−SD. b, c) 786-O parental and PBRM1 KO cells were treated with 10 μM of SMARCA2/4 ATPase inhibitor for 24 hours and transcriptomic changes were evaluated by RNA-seq (n=2 biological replicates). […] P values were calculated by Kolmogorov-Smirnov test and q value was adjusted for multiple hypotheses testing using gene permutation. d) 786-O cells expressing dox inducible shRNA against ARID2 were treated with 1 μg/ml doxycycline for 2 days and the gene expression of NF-κB targets were quantified by RT-qPCR (n=3 technical replicates representative of 2 biological replicates). Data are presented as mean values+/−SD. * p<0.05, ** p<0.01 (two-sided t-test). e) Single cell clones of either PBRM1 or ARID2 knockout were created in 769-P cells. […] P values were calculated by Kolmogorov-Smirnov test and q values were adjusted for multiple hypotheses testing using gene permutation. […]\nTotal RNA was extracted using the Qiagen RNeasy Mini kit. […] Sequencing was performed on an Illumina HiSeq4000 sequencer with the paired-end 150 bp read option.\nRNA-Seq Pathway Analysis RNA-seq data were mapped to hg19 (h117d5) using STAR, with GENCODE annotation (gencode.v19.annotation.gtf) and recommended settings from STAR manual. Gene expression levels were quantified with STAR. […]"}},
  "note": "Entries after “also recorded” stand apart in the source; their conditions may differ.",
  "data": [
    {"molecule": "bevacizumab: bevacizumab therapy", "values": [
      {"measurement": "prior therapy outcome", "setting": "RCC", "result": "failed"}
    ]},
    {"molecule": "CC(C)(C)c1ccc(S(=O)(=O)/C=C/C#N)cc1", "note": "[Bay 11-7085]", "values": [
      {"measurement": "suppressing the expression of NF-κB target genes", "setting": "[1]", "result": "not Bay 11-7085 was effective"},
      {"measurement": "effect on IκBα phosphorylation", "setting": "IκBα / NF-κB; TNFα-induced vs basal", "result": "inhibits TNFα-induced but not basal IκBα phosphorylation"},
      {"measurement": "effect on nuclear translocation of NF-κB", "setting": "IκBα / NF-κB; TNFα-induced", "result": "prevents TNFα-induced nuclear translocation of NF-κB"},
      {"measurement": "reducing colony formation", "setting": "786-O cells", "result": "not Bay 11-7085 was effective"}
    ]},
    {"molecule": "O=C(Nc1cc(C(F)F)ns1)Nc1cc(F)ncc1CO", "note": "[SMARCA2/4 ATPase inhibitor]", "values": [
      {"measurement": "downregulation of BCL2A1 and TNF, PB1-deficient vs proficient", "setting": "[2]; 786-O", "result": "greater downregulation in the PB1-deficient setting compared to the proficient setting"},
      {"measurement": "downregulation of NF-κB target genes", "setting": "[2]; 786-O parental and PB1 KO, 10, 20 and 50 μM, 3 days", "result": "dose-dependent downregulation of NF-κB target genes"},
      {"measurement": "sensitivity of PDLIM4 and APOL3 expression", "setting": "[2]; both PB1-proficient and deficient setting", "result": "exquisitely sensitive"},
      {"measurement": "regions probed with significantly decreased RELA occupancy", "setting": "[3]", "result": "5/6"},
      {"measurement": "downregulation of BCL2A1 and TNF, PB1-deficient vs proficient", "setting": "[4]; NCC432", "result": "greater downregulation in the PB1-deficient setting compared to the proficient setting"},
      {"measurement": "downregulation of NF-κB target genes", "setting": "[4]; NCC432 empty vector or PBRM1, 3 days", "result": "dose-dependent downregulation of NF-κB target genes"},
      {"measurement": "gene set enrichment of direct NF-κB targets, PB1-deficient vs parental", "setting": "[5]", "result": "greater effect of NF-κB downregulation in PB1-deficient cells compared to parental 786-O cells; also recorded: greater downregulation of NF-κB pathway in PBRM1-deficient cells compared to parental 786-O cells"}
    ]}
  ]
}
